{"source": "patent US20250228242A1", "about": "(priority 2021, published 2025)", "key": {"Albugo laibachii [1]": {"system": "Albugo laibachii", "experiment": "Albugo laibachii on A. thaliana, syringe infiltration of compound, visual scoring of disease severity", "assay_type": "in vivo", "conditions": "in Arabidopsis thaliana, 100 μM in 1% DMSO syringe infiltrated into adult A. thaliana, visually scored at nine dpi, read-out: A. laibachii Inhibitory effect", "method": "(§1) A. thaliana seeds were stratified on moist soil (Einheitserde type A240, Stender, Germany) for seven days at 4° C. in darkness, before transfer into growth chambers with short day conditions (10 h light, 14 h darkness, 23/20° C., 60% humidity). After three weeks, seedlings were singularised and grown for three weeks further. After six weeks, A. thaliana plants were used for experiments and after infection they were transferred into SANYO (Panasonic MLR-352, Japan) growth cabinets (10 h light, 14 h darkness, 22/16° C.). Potato plants were grown from tubers by covering them with soil (Einheitserde type A240, Stender, Germany). The leaves of adult plants (˜4-6 weeks old) were cut off and kept in a moist environment for infection assays.\n(§2) For regular Albugo sp. infections A. thaliana Ws-0 was sprayed with an Albugo sp. conidiospores solution. These spore solutions were prepared by harvesting sporulating leaf material at 14 days post infection (dpi) and adding water for rehydration of the spores. Spore solutions were hold on ice for ˜1 h, before filtering through miracloth (Merck Millipore, Germany) to remove dirt. Spores were counted and the solutions diluted to 22.2×10^4 conidiospores/ml. Albugo sp. spore solutions were sprayed uniformly on A. thaliana leaves (4.5 ml per six plants) using an airbrush gun. During spraying, plants were placed in a plastic bag and afterwards transferred into a cold room to incubate at 4° C. in darkness (˜16 h). The next morning, plants were transferred into plant growth cabinets, but left in clear bags to keep humidity high, which supports Albugo sp. infections. ˜24 h later plants were unbagged and further incubated under normal plant growth conditions.\n(§3) Afterwards, the plants were kept in the lab for ˜1 h to let the leaves equilibrate again. The infiltrated plants were infected with Albugo sp., following the above-mentioned protocol. At 7 dpi, infiltrated leaves were phenotypically scored and harvested. The samples were frozen in liquid nitrogen and stored at −80° C. until DNA extraction for growth quantification via qPCR. For experiment 4, A. candida spore solutions were prepared as before and mixed with 10 mM stock solution of the test compound (100 μM end conc.). The mixture of spore solution and test compound was sprayed and incubated as for experiment 2 and 3.\n(§4) • Fungicidal activity against other oomycetes was tested using isolates of the obligate biotrophic pathogen genus Albugo on Arabidopsis thaliana. The test compounds, 100 μM in 1% DMSO, were syringe infiltrated into adult A. thaliana and subsequently sprayed with aqueous spore solutions of Albugo laibachii or A. candida. In primary screenings, disease severity was visually screened and scored at nine days post infection (dpi) (Table 2+3)."}, "[2]": {"system": "Pseudomonas syringae pv. tomato (Pto) DC3000", "experiment": "Bacterial liquid culture growth curves (OD600), Pto DC3000", "conditions": "18.5 h, read-out: Absolute growth rate relative to mock control, Pto DC3000"}, "Rhodococcus sp.": {"system": "Rhodococcus sp.", "experiment": "Bacterial liquid culture growth curves (OD600), Rhodococcus sp.", "conditions": "18.5 h, read-out: Absolute growth rate relative to mock control, Rhodococcus sp."}, "Phytophthora infestans": {"system": "Phytophthora infestans", "experiment": "whole plant or invertebrate", "assay_type": "in vivo", "conditions": "in Solanum tuberosum, 120 h, read-out: P. infestans % inhibition"}, "Albugo candida [3]": {"system": "Albugo candida", "experiment": "Albugo candida on A. thaliana, syringe infiltration of compound, visual scoring of disease severity", "assay_type": "in vivo", "conditions": "in Arabidopsis thaliana, read-out: A. candida Inhibitory effect", "method": "as §1, §2, §3, §4"}, "P. infestans": {"system": "P. infestans", "experiment": "whole plant or invertebrate", "assay_type": "in vivo", "conditions": "Phytophthora infestans, in Solanum tuberosum, read-out: P. infestans % inhibition"}, "A. candida": {"system": "A. candida", "experiment": "A. candida growth on A. thaliana after spray application of spore solution mixed with compound, qPCR", "assay_type": "in vivo, Albugo candida", "conditions": "for inhibition at 100 µM: Candida, in Arabidopsis thaliana, spray application of spore solution mixed with 100 μM compound in 1% DMSO, qPCR at 7 dpi, A. thaliana"}, "Albugo candida [4]": {"system": "Albugo candida", "experiment": "Albugo candida growth on A. thaliana after syringe infiltration, quantified via qPCR", "assay_type": "in vivo", "conditions": "for inhibition at 100 µM: Albugo candida, in Arabidopsis thaliana, qPCR at 7 dpi, A. thaliana; for inhibition of A. candida growth (in words): Table 4, qPCR at 7 dpi"}, "Albugo laibachii [5]": {"system": "Albugo laibachii", "experiment": "Albugo laibachii growth on A. thaliana after syringe infiltration, quantified via qPCR", "assay_type": "in vivo", "conditions": "Albugo laibachii, in Arabidopsis thaliana, 100 μM, qPCR at 7 dpi, A. thaliana"}}, "data": [{"smiles": "Ic1cccc(-c2cc(-c3ccc4c(c3)OCO4)n[nH]2)c1", "note": "[Compound 8, 3-(1,3-Benzodioxol-5-yl)-5-(3-iodophenyl)-1H-pyrazole]", "values": [{"measurement": "inhibition at 100 µM", "setting": "Albugo laibachii [1]", "value": "5 to 30", "unit": "%"}, {"measurement": "activity at 100 µM", "setting": "[2]", "value": 100, "unit": "%"}, {"measurement": "activity at 100 µM", "setting": "Rhodococcus sp.", "value": 35, "unit": "%"}]}, {"smiles": "Oc1ccc(-c2cc(-c3cc(O)c(O)c(O)c3)n[nH]2)cc1O", "note": "[Compound 5, 5-(3,4-Dihydroxyphenyl)-3-(3,4,5-trihydroxyphenyl)-1H-pyrazole]", "values": [{"measurement": "inhibition at 100 µM", "setting": "Phytophthora infestans", "value": 89, "unit": "%"}, {"measurement": "inhibition at 100 µM", "setting": "Albugo candida [3]", "value": "> 70", "unit": "%"}, {"measurement": "activity at 100 µM", "setting": "[2]", "value": 40, "unit": "%"}, {"measurement": "activity at 100 µM", "setting": "Rhodococcus sp.", "value": 64, "unit": "%"}]}, {"smiles": "Br.Oc1ccc(-c2cc(-c3ccc(Cl)cc3)[nH]n2)cc1", "note": "[Compound 36, 5-(4-Chlorophenyl)-3-(4-hydroxyphenyl)-1H-pyrazole hydrobromide]", "values": [{"measurement": "inhibition at 100 µM", "setting": "Phytophthora infestans", "value": 95, "unit": "%"}, {"measurement": "inhibition at 100 µM", "setting": "P. infestans", "value": 85, "unit": "%"}, {"measurement": "inhibition at 100 µM", "setting": "Albugo candida [3]", "value": "> 70", "unit": "%"}, {"measurement": "inhibition at 100 µM", "setting": "A. candida", "value": 94, "unit": "%"}, {"measurement": "growth inhibition of A. candida (in words)", "setting": "A. candida; Table 5, spore solution mixed with compound, sprayed", "value": "strong growth inhibition"}, {"measurement": "activity at 100 µM", "setting": "[2]", "value": 104, "unit": "%"}, {"measurement": "activity at 100 µM", "setting": "Rhodococcus sp.", "value": 9, "unit": "%"}]}, {"smiles": "Oc1ccc(-c2cc(-c3cccc(Br)c3)[nH]n2)cc1O", "note": "[Compound 4, 5-(3-Bromophenyl)-3-(3,4-dihydroxyphenyl)-1H-pyrazole]", "values": [{"measurement": "inhibition at 100 µM", "setting": "Albugo laibachii [1]", "value": "5 to 30", "unit": "%"}, {"measurement": "activity at 100 µM", "setting": "[2]", "value": 48, "unit": "%"}, {"measurement": "activity at 100 µM", "setting": "Rhodococcus sp.", "value": -1, "unit": "%"}]}, {"smiles": "Brc1ccccc1-c1cc(-c2ccc3c(c2)OCO3)n[nH]1", "note": "[Compound 10, 3-(1,3-Benzodioxol-5-yl)-5-(2-bromophenyl)-1H-pyrazole]", "values": [{"measurement": "inhibition at 100 µM", "setting": "Phytophthora infestans", "value": 82, "unit": "%"}, {"measurement": "inhibition at 100 µM", "setting": "Albugo candida [4]", "value": 68, "unit": "%"}, {"measurement": "inhibition of A. candida growth (in words)", "setting": "Albugo candida [4]", "value": "strong inhibition"}, {"measurement": "inhibition at 100 µM", "setting": "Albugo laibachii [5]", "value": 36, "unit": "%"}, {"measurement": "activity at 100 µM", "setting": "[2]", "value": 111, "unit": "%"}, {"measurement": "activity at 100 µM", "setting": "Rhodococcus sp.", "value": 24, "unit": "%"}]}, {"smiles": "COc1ccc(-c2cc(-c3ccc(OC)c(OC)c3)on2)cc1OC", "note": "[Compound 43, 3,5-Bis(3,4-dimethoxyphenyl)isoxazole]", "values": [{"measurement": "inhibition at 100 µM", "setting": "Albugo candida [3]", "value": "> 70", "unit": "%"}, {"measurement": "activity at 100 µM", "setting": "[2]", "value": 114, "unit": "%"}, {"measurement": "activity at 100 µM", "setting": "Rhodococcus sp.", "value": 75, "unit": "%"}]}, {"smiles": "Br.Oc1ccc(-c2noc(-c3ccc(O)c(O)c3)n2)cc1O", "note": "[Compound 24, 3,5-Bis(3,4-Dihydroxyphenyl)-1,2,4-oxadiazole hydrobromide]", "values": [{"measurement": "inhibition at 100 µM", "setting": "Phytophthora infestans", "value": 80, "unit": "%"}, {"measurement": "inhibition at 100 µM", "setting": "Albugo candida [3]", "value": "> 70", "unit": "%"}, {"measurement": "inhibition at 100 µM", "setting": "Albugo candida [4]", "value": 80, "unit": "%"}, {"measurement": "inhibition of A. candida growth (in words)", "setting": "Albugo candida [4]", "value": "strong inhibition"}, {"measurement": "inhibition at 100 µM", "setting": "Albugo laibachii [5]", "value": 16, "unit": "%"}, {"measurement": "inhibition at 100 µM", "setting": "A. candida", "value": 41, "unit": "%"}, {"measurement": "activity at 100 µM", "setting": "[2]", "value": 95, "unit": "%"}, {"measurement": "activity at 100 µM", "setting": "Rhodococcus sp.", "value": 19, "unit": "%"}]}, {"smiles": "Oc1cc(-c2cc(-c3cc(Br)cc(Br)c3)[nH]n2)cc(O)c1O", "note": "[Compound 6, 5-(3,5-Dibromophenyl)-3-(3,4,5-trihydroxyphenyl)-1H-pyrazole]", "values": [{"measurement": "inhibition at 100 µM", "setting": "Albugo laibachii [1]", "value": "> 70", "unit": "%"}, {"measurement": "activity at 100 µM", "setting": "[2]", "value": 73, "unit": "%"}, {"measurement": "activity at 100 µM", "setting": "Rhodococcus sp.", "value": 1, "unit": "%"}]}, {"smiles": "Cn1nc(-c2ccc3c(c2)OCO3)cc1-c1cccc(Br)c1", "note": "[Compound 41, 3-(1,3-Benzodioxol-5-yl)-5-(3-bromophenyl)-1-methyl-1H-pyrazole]", "values": [{"measurement": "inhibition at 100 µM", "setting": "Albugo laibachii [1]", "value": "30 to 70", "unit": "%"}, {"measurement": "activity at 100 µM", "setting": "[2]", "value": 106, "unit": "%"}, {"measurement": "activity at 100 µM", "setting": "Rhodococcus sp.", "value": 62, "unit": "%"}]}]}
